Measurements published in ChEMBL document CHEMBL1139004, “SAR and inhibitor complex structure determination of a novel class of potent and specific Aurora kinase inhibitors” (Bioorg Med Chem Lett, 2006).
≈ marks a conversion by molar mass, not a printed value.

How the values were obtained:
[1] = system: MCF7; test: Antiproliferative activity against MCF7 cell line; type: functional, cell-based; details: Homo sapiens
[2] = Aqueous solubility of the compound
[3] = Percent of unbound ligand in rat plasma; type: ADME, organism-based
[4] = molecular target: T1, Aurora kinase A (Homo sapiens, UniProt O14965); test: Inhibitory activity against Aurora A
T1 sequence (O14965 whole entry): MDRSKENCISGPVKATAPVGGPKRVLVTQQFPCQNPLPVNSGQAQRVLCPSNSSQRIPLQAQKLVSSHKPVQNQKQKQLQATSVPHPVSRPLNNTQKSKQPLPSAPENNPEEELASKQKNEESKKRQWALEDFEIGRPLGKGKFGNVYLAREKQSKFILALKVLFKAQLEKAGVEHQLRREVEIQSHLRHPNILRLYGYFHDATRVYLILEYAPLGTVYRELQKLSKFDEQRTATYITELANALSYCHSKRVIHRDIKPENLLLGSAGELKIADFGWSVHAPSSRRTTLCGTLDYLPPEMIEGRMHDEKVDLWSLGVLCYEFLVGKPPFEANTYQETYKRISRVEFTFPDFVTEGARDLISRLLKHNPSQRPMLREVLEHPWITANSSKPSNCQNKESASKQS

[5] = Distribution coefficient of the compound, log D at pH 7.4; type: physicochemical; details: octanol/water

| IC50 [1] [nM] | solubility [2] [µM] | fraction unbound [3] | IC50 [4] [nM] | logD [5] | SMILES |
| --- | --- | --- | --- | --- | --- |
|  |  |  | 70 |  | COc1cc2c(Nc3cnc(NC(=O)c4ccc(C)c(Br)c4)nc3)ncnc2cc1OCCCN1CCOCC1 |
|  |  |  | 690 |  | COc1cc2c(Nc3cnc(NC(=O)c4ccncc4)nc3)ncnc2cc1OCCCN1CCOCC1 |
| 24 | 3600 (≈ 1970 µg/mL) |  | 0.8 |  | COc1cc2c(Nc3cnc(NC(=O)c4cccc(Cl)c4)nc3)ncnc2cc1OCCCN1CCCCC1 |
| 80 |  |  | < 0.1 |  | COc1cc2c(Nc3cnc(NC(=O)c4cccc(Cl)c4)nc3)ncnc2cc1OCCCN1CCOCC1 |
| 210 |  | 0.045 | 3 | 2.7 | COc1cc2c(Nc3cnc(NC(=O)c4ccccc4)nc3)ncnc2cc1OCCCN1CCOCC1 |
| 20 |  | 0.004 | 0.15 |  | COc1cc2c(Nc3cnc(NC(=O)c4ccc(F)c(Cl)c4)nc3)ncnc2cc1OCCCN1CCOCC1 |

Second part, the compound before the results:

| SMILES | IC50 [1] [nM] | solubility [2] [µM] | fraction unbound [3] | IC50 [4] [nM] | logD [5] |
| --- | --- | --- | --- | --- | --- |
| COc1cc2c(Nc3ccc(NC(=O)c4ccccc4)cc3)ncnc2cc1OCCCN1CCOCC1 | 198 | 2.5 (≈ 1.28 µg/mL) | 0.003 |  |  |
| CCc1ccc(C(=O)Nc2ncc(Nc3ncnc4cc(OCCCN5CCOCC5)c(OC)cc34)cn2)cc1 |  |  |  | 85 |  |
| CCCCC(=O)Nc1ncc(Nc2ncnc3cc(OCCCN4CCOCC4)c(OC)cc23)cn1 |  |  |  | 17 |  |
| COc1cc2c(Nc3ncc(NC(=O)c4ccccc4)cn3)ncnc2cc1OCCCN1CCOCC1 |  |  |  | 629 |  |
| CCCN(CCC)S(=O)(=O)c1ccc(C(=O)Nc2ncc(Nc3ncnc4cc(OCCCN5CCOCC5)c(OC)cc34)cn2)cc1 |  |  |  | 3900 |  |
| COc1cc2c(Nc3cnc(NC(=O)c4ccccc4)nc3)ncnc2cc1OC[C@@H](O)CN1CCCCC1 |  | 1500 (≈ 794 µg/mL) |  |  |  |
| COc1cc2ncnc(Nc3ccc(NC(=O)c4ccccc4)cc3)c2cc1OC [ANILINOQUINAZOLINE1] | 1250 |  |  | 393 | 3.7 |
